TGI and GI50 data for 12 molecules are collected here from PubChem BioAssay (NCI).

Test in all cases: DTP human tumour cell line panel, 48 h
The subject of assay [1] is LOX IMVI melanoma.
Assay [2] deals with MALME-3M melanoma.
Assay [3] has as its system RXF 393 renal.
Assay [4] relates to EKVX NSCLC.
In assay [5] the test system is HCT-116 colon.
Assay [6] relates to UACC-62 melanoma.
Assay [7] concerns MOLT-4 leukemia.
Assay [8] concerns SF-268 CNS.
Assay [9] has as its system SNB-75 CNS.
For assay [10], the system named is OVCAR-3 ovarian.
Assay [11] deals with IGROV1 ovarian.
In assay [12] the test system is M14 melanoma.

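The compound was tested at five concentrations on cells cultured in 96-well plates, with a 48-hour exposure period. GI50 = concentration required for 50% inhibition of growth. TGI is the concentration that stops growth completely.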

The TGI is the concentration giving total growth inhibition. For the molecule `C=C1CC[C@@H](Br)C(C)(C)[C@]12CCC(C)(O)C(Cl)C2` (some centres not stated), the total growth inhibition concentration (TGI) is 35.2 µM in [1]; 86.2 µM in assay [2]; 34.2 µM in assay [3]; 40.2 µM in [4]; 32.3 µM in assay [5]; 41.4 µM in [6]. Further, the concentration for total growth inhibition (TGI) in assay [7] was 38.3 µM; in assay [8] it was 32.6 µM; in assay [9], 78.1 µM; in [10], 35.8 µM; in [11], 44 µM.
`O=C(CCl)NC(Cc1ccc(F)cc1)C(=O)O` (configuration not stated): the TGI in assay [1], in assay [2], in assay [4], in [5], in [6] and in assay [7] was greater than 100 µM throughout. In addition, the TGI in assay [8], in [9], in assay [10] and in [11] was greater than 100 µM in each case.
As to `CCOC(=O)[C@H]1Nc2c(cccc2[N+](=O)[O-])[C@H]2OCC[C@@H]12`, the TGI in [1], in assay [2], in assay [12], in assay [3], in [4] and in assay [5] was greater than 100 µM in each case. Further, the concentration for total growth inhibition (TGI) in assay [6], in assay [7], in assay [8], in assay [9], in assay [10] and in assay [11] was greater than 100 µM each time.
`CCCCCCCCCCCCCCCC(=O)OCC1CCCN2CCCCC12` (configuration not stated): the TGI in [1], in assay [2], in [12], in assay [3], in [4] and in assay [5] was greater than 100 µM each time. For the same molecule, the TGI in assay [6], in assay [7], in [8], in assay [9] and in assay [10] was greater than 100 µM in each case.
In the case of `O=C(O)NCc1ccccc1` (tested in a mixture with another compound), the TGI in [1] was greater than 100 µM; in [2], 85.9 µM; in assay [12] it was 99.3 µM; in [3], greater than 75.5 µM; in [4] it was greater than 85.1 µM; in assay [5] it was greater than 100 µM. In addition, the concentration for total growth inhibition (TGI) in assay [6] is 37.2 µM; in assay [7], 45.9 µM; in assay [8] it was greater than 100 µM; in [9], 60.6 µM; in assay [10], greater than 96.1 µM; in [11], greater than 100 µM.
In the case of `CC1CCC(O)(C(C)(C(=O)O)c2ccccc2)CC1` (configuration not stated), the TGI in assay [1], in assay [2], in assay [12], in [3], in [4] and in assay [5] was greater than 100 µM in each case. The TGI in assay [6], in assay [7], in [8], in assay [10] and in assay [11] was greater than 100 µM each time.
The GI50 is the concentration giving 50% growth inhibition. With `CC[C@H](Nc1nc(N)nc(C)c1C#N)c1nc2cccc(NCc3ccc(C(=O)NO)cc3)c2c(=O)n1-c1ccccc1`, the GI50 in [2] is 1.63 µM; in [3], 1.21 µM; in assay [4], 2.1 µM; in assay [5], 1.82 µM; in assay [7] it was 2.34 µM; in assay [8] it was 1.33 µM. Moreover, the GI50 in assay [9] is 0.711 µM; in [10], 1.2 µM. Further, the TGI in assay [2] was 4.13 µM; in [3] it was 3.05 µM; in assay [4], 6.84 µM; in assay [5], 4.34 µM; in assay [7], greater than 100 µM; in assay [8], 3.19 µM. The concentration for total growth inhibition (TGI) in [9] worked out at 3.97 µM; in [10] it was 3.26 µM.
As to `NC(=S)Nc1cc(Cl)ccc1Cl`, the TGI in [1], in [2], in assay [12], in [3], in [4] and in assay [5] was greater than 100 µM in each case. In addition, the TGI in assay [6], in assay [7], in assay [8], in [9], in assay [10] and in assay [11] was greater than 100 µM throughout.
As for `COc1cc(N/N=C/C#N)cc(OC)c1OC`, the total growth inhibition concentration (TGI) in [1] is 3.24 µM; in assay [2] it was greater than 10 µM; in assay [12] it was greater than 10 µM; in assay [3], greater than 10 µM; in [4], greater than 10 µM; in assay [5], greater than 10 µM. In addition, the TGI in assay [6], in assay [7], in assay [8], in [9], in [10] and in assay [11] was greater than 10 µM in each case.
With `C/C(=N\Oc1cc(Cl)ncn1)c1ccccn1`, the TGI is greater than 100 µM in assay [1]; greater than 100 µM in assay [2]; greater than 100 µM in assay [12]; 95.7 µM in [3]; greater than 100 µM in assay [4]; greater than 100 µM in assay [5]. The TGI in assay [6], in [7], in assay [8], in assay [9], in [10] and in assay [11] was greater than 100 µM in each case.
For `Cc1cc2c(cc1C)[n+](=O)c(C#N)c(Cl)n2[O-]`, the TGI in assay [1] came to 39.2 µM; in assay [2], 30 µM; in [3] it was 26.4 µM; in assay [4], 28.5 µM; in assay [5], 32 µM; in assay [6] it was 29.6 µM. The TGI is 48.5 µM in assay [7]; greater than 100 µM in assay [8]; 45.2 µM in assay [9]; 20.6 µM in assay [10]; 33.3 µM in assay [11].
With `Nc1nncc2c1ccn2C1OC(CO)C(O)C1O` (configuration not stated), the TGI in assay [1], in assay [2], in assay [12], in assay [3], in assay [4] and in [5] was greater than 100 µM in each case. The TGI in [6], in assay [7], in assay [8], in [9], in assay [10] and in assay [11] was greater than 100 µM each time.
